Calls of active or inactive are those of the source.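 The calls were made as follows: active = any mouse or rat spared a seizure in electric shock or chemically induced seizure tests, at any tested dose or timing; inactive = no animal spared a seizure in any test.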

In this experiment the test system is mouse/rat MES, scMET, 6Hz seizure protection, qualitative. The experiment can be described thus: anticonvulsant seizure protection in rodents, summary, in vivo study, qualitative, MES, scMET, 6Hz, i.p. and oral (AID 423).
With `CCC1(C)CC(=O)NC1=O` (stereo not given), the outcome was “active; inactive”.
As to `CCC1(c2ccccc2)C(=O)NC(=O)NC1=O`, the result was active.
With `CCCCC1C(=O)N(c2ccccc2)N(c2ccccc2)C1=O`, the outcome is “active; inactive”.
As for `NC(=O)N1c2ccccc2C=Cc2ccccc21`, the entry is “active”.
Under `O=C1CN=C(c2ccccc2Cl)c2cc([N+](=O)[O-])ccc2N1` stands “active”; under `COC(=O)Nc1nc2ccc(C(=O)c3ccccc3)cc2[nH]1`, “active; inactive”.
`CC(=O)OCC[N+](C)(C)C`: the outcome was “active; inactive”.
For `O=C1CC2OCC=C3CN4CCC56c7ccccc7N1C5C2C3CC46` (stereo not given), the outcome was “active; inactive”.
In the case of `CCN(CC)CC(=O)Nc1c(C)cccc1C`, the result was active.
Under `CC(C)[N+](C)(CCOC(=O)C1c2ccccc2Oc2ccccc21)C(C)C` stands “active; inactive”.

The values above are taken from PubChem BioAssay AID423 (Public Access to Neuroactive & Anticonvulsant Chemical …, 2006).
